Data taken from PubChem BioAssay AID330 (DTP/NCI, 2004).
Values joined by “and” are separate entries in the source; they are usually repeats but may differ in a detail not shown here. Equal values may be shown once. Inconclusive results and toxic doses are left out. The calls were made as follows: active = survival T/C of 150% or more; inactive = T/C below 125% in these data. Square brackets hold non-standard residues; d marks the D form. Peptide text beside a SMILES is read from it. ξ: configuration not given here. ξPhe(4-N(CH2CH2Cl)2) = NC(Cc1ccc(N(CCCl)CCCl)cc1)C(=O)O

Tested on: P388 leukemia ip, CD2F1 mice, survival T/C
Assay: NCI In Vivo Anticancer Drug Screen. Data for tumor model P388 Leukemia (intraperitoneal) in CD2F1 (CDF1) mice
Conditions: endpoint: median survival time, higher = longer survival
In short: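 Mice carrying the transplanted tumor received test compound or vehicle. Survival was recorded in each group, and the value is the treated-group measurement divided by that of the vehicle-treated control group.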

[1] = dose: 50.0 mg/kg/injection, schedule: Q04DX003 (ip), vehicle: saline with Tween-80
[2] = dose: 100.0 mg/kg/injection, schedule: Q04DX003 (ip), vehicle: saline with Tween-80
[3] = dose: 200.0 mg/kg/injection, schedule: Q04DX003 (ip), vehicle: saline with Tween-80
[4] = dose: 50.0 mg/kg/injection, schedule: Q01DX005 (ip), vehicle: Klucel (hydroxypropylcellulose) (HPC)
[5] = dose: 100.0 mg/kg/injection, schedule: Q01DX005 (ip), vehicle: Klucel (hydroxypropylcellulose) (HPC)
[6] = dose: 200.0 mg/kg/injection, schedule: Q01DX005 (ip), vehicle: Klucel (hydroxypropylcellulose) (HPC)
[7] = dose: 25.0 mg/kg/injection, schedule: Q01DX009 (ip), vehicle: saline
[8] = dose: 50.0 mg/kg/injection, schedule: Q01DX009 (ip), vehicle: saline
[9] = dose: 100.0 mg/kg/injection, schedule: Q01DX009 (ip), vehicle: saline
[10] = dose: 200.0 mg/kg/injection, schedule: Q01DX009 (ip), vehicle: saline
[11] = dose: 100.0 mg/kg/injection, schedule: Q01DX009 (ip), vehicle: saline with Tween-80
[12] = dose: 200.0 mg/kg/injection, schedule: Q01DX009 (ip), vehicle: saline with Tween-80
[13] = dose: 400.0 mg/kg/injection, schedule: Q01DX009 (ip), vehicle: saline with Tween-80
[14] = dose: 400.0 mg/kg/injection, schedule: Q04DX003 (ip), vehicle: saline with Tween-80

Measured: T/C

COc1ccc2nc3cc(Cl)ccc3c(Nc3cccc(NC(C)=O)c3)c2n1
inactive: dose: 6.25 mg/kg/injection, schedule: Q01DX009 (ip), vehicle: other 108 % of control | dose: 12.5 mg/kg/injection, schedule: Q01DX009 (ip), vehicle: other 102 % of control | dose: 25.0 mg/kg/injection, schedule: Q01DX009 (ip), vehicle: other 102 % of control | dose: 50.0 mg/kg/injection, schedule: Q01DX009 (ip), vehicle: other 98 % of control | dose: 100.0 mg/kg/injection, schedule: Q01DX009 (ip), vehicle: other 99 % of control

O=C1OC(c2ccc(Cl)cc2)Sc2ccccc21 (stereo unspecified)
inactive: dose: 25.0 mg/kg/injection, schedule: Q04DX003 (ip), vehicle: saline with Tween-80 102 % of control | [1] 93 % of control | [2] 102 % of control | [3] 100 % of control

N#CC1C(=O)NC(=O)C(C#N)C1c1ccc(C2C(C#N)C(=O)NC(=O)C2C#N)cc1 (stereo unspecified)
inactive: dose: 50.0 mg/kg/injection, schedule: Q01DX009 (ip), vehicle: Klucel (hydroxypropylcellulose) (HPC) 105 % of control | dose: 100.0 mg/kg/injection, schedule: Q01DX009 (ip), vehicle: Klucel (hydroxypropylcellulose) (HPC) 100 % of control | dose: 200.0 mg/kg/injection, schedule: Q01DX009 (ip), vehicle: Klucel (hydroxypropylcellulose) (HPC) 113 % of control

Cc1[nH]n(-c2cc(S(=O)(=O)O)ccc2Cl)c(=O)c1N=Nc1ccc(C(=O)Nc2ccc(S(=O)(=O)O)cc2)cc1
inactive: [4] 99 % of control | [5] 92 % of control | [6] 99 % of control

Cn1c(=O)c2[nH]c(Cl)nc2n(C)c1=O
inactive: [7] 100 % of control | [8] 102 % of control | [9] 102 % of control | [10] 99 % of control

O=c1cc[nH]c(=S)[nH]1.[Cu+2]
inactive: dose: 1.56 mg/kg/injection, schedule: Q01DX009 (ip), vehicle: DMSO 100 % of control | dose: 3.12 mg/kg/injection, schedule: Q01DX009 (ip), vehicle: DMSO 99 % of control | dose: 6.25 mg/kg/injection, schedule: Q01DX009 (ip), vehicle: DMSO 86 % of control | dose: 12.5 mg/kg/injection, schedule: Q01DX009 (ip), vehicle: DMSO 100 % of control

CCCCCCCCCCCCCC[N+]1(CC)CCOCC1
inactive: dose: 3.12 mg/kg/injection, schedule: Q01DX009 (ip), vehicle: saline 119 % of control | dose: 6.25 mg/kg/injection, schedule: Q01DX009 (ip), vehicle: saline 115 % of control | dose: 12.5 mg/kg/injection, schedule: Q01DX009 (ip), vehicle: saline 123 % of control

O=C(CCl)c1ccc(Cl)c(Cl)c1
inactive: dose: 100.0 mg/kg/injection, schedule: Q01DX001 (ip), vehicle: other 100 % of control | dose: 200.0 mg/kg/injection, schedule: Q01DX001 (ip), vehicle: other 100 % of control

O=C1CCc2cc(O)ccc21
inactive: [7] 108 % of control | [8] 94 % of control | [9] 98 % of control | [10] 100 % of control

Cc1cc2nc3c(C4OCC(O)C4O)nn(-c4ccc(F)cc4)c3nc2cc1C (stereo unspecified)
inactive: dose: 12.5 mg/kg/injection, schedule: Q01DX005 (ip), vehicle: Klucel (hydroxypropylcellulose) (HPC) 95 % of control | dose: 25.0 mg/kg/injection, schedule: Q01DX005 (ip), vehicle: Klucel (hydroxypropylcellulose) (HPC) 90 % of control | [4] 88 % of control

CCOC(=O)C1=CNc2c(C#N)cnn2C1(C(=O)OCC)c1cn(C)c2ccccc12 (stereo unspecified)
inactive: dose: 6.25 mg/kg/injection, schedule: Q01DX005 (ip), vehicle: saline with Tween-80 99 % of control | dose: 12.5 mg/kg/injection, schedule: Q01DX005 (ip), vehicle: saline with Tween-80 95 % of control | dose: 25.0 mg/kg/injection, schedule: Q01DX005 (ip), vehicle: saline with Tween-80 87 % of control

CCCCCCCCCCCCCCCCNc1cccc2ccccc12
inactive: dose: 100.0 mg/kg/injection, schedule: Q01DX009 (ip), vehicle: saline sonified 95 % of control | [11] 100 % of control | [2] 95 % of control | dose: 200.0 mg/kg/injection, schedule: Q01DX009 (ip), vehicle: saline sonified 105 % of control | [12] 90 % of control | [3] 86 % of control | dose: 400.0 mg/kg/injection, schedule: Q01DX009 (ip), vehicle: saline sonified 95 % of control | [13] 90 % of control | [14] 95 % of control

N#C[S-].N#C[S-].[Au+3].[Au+3].[CH3-].[CH3-].[CH3-].[CH3-]
inactive: [1] 100 % of control | [2] 120 % of control

NC1CONC1=O (stereo unspecified)
inactive: [11] 109 % of control | [2] 100 % of control | [12] 100 % of control | [3] 109 % of control | [13] 100 % of control | [14] 109 % of control

C1COCCN2CCOCCOCCN(CCO1)CCOCC2
inactive: [8] 109 % of control | [9] 106 % of control | [10] 107 % of control

CCOC(=O)C(Cc1ccc(N(CCCl)CCCl)cc1)NC(=O)C(CCC(=O)O)NC(=O)C(CO)NC(=O)C(CCC(=O)O)NC(=O)C(N)CO (stereo unspecified) (H-SESE[ξPhe(4-N(CH2CH2Cl)2)]-OEt; configuration not given here)
inactive: dose: 5.0 mg/kg/injection, schedule: Q04DX003 (ip), vehicle: water 95 % of control | dose: 10.0 mg/kg/injection, schedule: Q04DX003 (ip), vehicle: water 106 % of control | dose: 20.0 mg/kg/injection, schedule: Q04DX003 (ip), vehicle: water 94 % of control | dose: 40.0 mg/kg/injection, schedule: Q04DX003 (ip), vehicle: water 105 % of control and 119 % of control

CC1CCN(C(=O)c2nc3ccccc3[nH]2)CC1
inactive: [4] 102 % of control | [5] 103 % of control | [6] 107 % of control

CS(=O)(=O)C(c1nc2nnc(N)n2[nH]c1=O)c1nc2nnc(N)n2[nH]c1=O
inactive: dose: 60.0 mg/kg/injection, schedule: Q01DX005 (ip), vehicle: saline 99 % of control | dose: 120.0 mg/kg/injection, schedule: Q01DX005 (ip), vehicle: saline 105 % of control | dose: 240.0 mg/kg/injection, schedule: Q01DX005 (ip), vehicle: saline 105 % of control

O=NN(CCCl)C(=O)Oc1ccc(Cl)cc1Cl
inactive: dose: 3.12 mg/kg/injection, schedule: Q01DX001 (ip), vehicle: saline with Tween-80 106 % of control | dose: 6.25 mg/kg/injection, schedule: Q01DX001 (ip), vehicle: saline with Tween-80 118 % of control | dose: 25.0 mg/kg/injection, schedule: Q01DX001 (ip), vehicle: saline with Tween-80 123 % of control | dose: 50.0 mg/kg/injection, schedule: Q01DX001 (ip), vehicle: saline with Tween-80 109 % of control | dose: 100.0 mg/kg/injection, schedule: Q01DX001 (ip), vehicle: saline with Tween-80 122 % of control | dose: 150.0 mg/kg/injection, schedule: Q01DX001 (ip), vehicle: saline with Tween-80 118 % of control

CC1C(C)(C)P(C)(=O)C1(C)C (stereo unspecified)
inactive: dose: 100.0 mg/kg/injection, schedule: Q04DX002 (ip), vehicle: saline with Tween-80 89 % of control | dose: 200.0 mg/kg/injection, schedule: Q04DX002 (ip), vehicle: saline with Tween-80 97 % of control

CC(CN)OC12CC3CC(CC(C3)C1)C2 (stereo unspecified)
inactive: dose: 60.0 mg/kg/injection, schedule: Q01DX005 (ip), vehicle: saline with Tween-80 100 % of control | dose: 120.0 mg/kg/injection, schedule: Q01DX005 (ip), vehicle: saline with Tween-80 99 % of control

Cc1nc(C(Cl)(Cl)Cl)[nH]c(=O)c1SCCO
inactive: dose: 50.0 mg/kg/injection, schedule: Q01DX005 (ip), vehicle: distilled water + alcohol 101 % of control and 108 % of control | dose: 100.0 mg/kg/injection, schedule: Q01DX005 (ip), vehicle: distilled water + alcohol 105 % of control and 120 % of control | dose: 200.0 mg/kg/injection, schedule: Q01DX005 (ip), vehicle: distilled water + alcohol 114 % of control
